pEC50: −log10 of the molar value.
Columns and labels:
human TLR7 = human TLR7 (Homo sapiens (Human), UniProt Q9NYK1); test: HEK-Blue TLR7 reporter assay (TLR7 agonist activity); assay type: cell-based; conditions: HEK-Blue TLR7 cells, SEAP reporter, 18 h treatment; read-out: TLR7 Agonism (EC50)
Method: This example describes a method for assaying TLR7 agonist activity of the compounds disclosed in this specification.
HEK-Blue™ TLR7 cells were added to each well of a 384-well tissue-culture plate (15,000 cells per well) and incubated 16-18 h at 37° C., 5% CO2. Compounds (100 nl) were dispensed into wells containing the HEK-Blue™ TLR cells and the treated cells were incubated at 37° C., 5% CO2. After 18 h treatment ten microliters of freshly-prepared Quanti-Blue™ reagent (Invivogen) was added to each well, incubated for 30 min (37° C., 5% CO2) and SEAP levels measured using an Envision plate reader (OD=620 nm).

interleukin 6 (IL-6) = test: Interleukin 6 induction assay in human whole blood; assay type: cell-based; conditions: 37° C. for 20 h, AlphaLISA, read-out: IL6 Induction (EC50)
Method: This example describes a method for assaying interleukin 6 induction by compounds disclosed in this specification.
Compounds diluted in DMSO were transferred to individual wells of a Matrix Technologies clear, V-bottom 384-well plate using ECHO acoustic liquid handling technology (25 nL per well). Human whole-blood samples (25 uL) were added to each well using a CyBio FeliX liquid handling instrument. The plate was shaken on a plate shaker for three min before incubating the reaction mixtures at 37° C. for 20 h. Basel RPMI 1640 medium (supplemented with L-glutamine) was then added to each well (25 uL per well) prior to liberating plasma from each sample by centrifugation (450×g, 5 min, ambient temperature). Treated plasma samples (3 uL) were subsequently transferred to individual wells of a white, shallow, 384-well ProxiPlate (Perkin Elmer) using the FeliX liquid handling instrument and their interleukin 6 levels were measured using AlphaLISA technology as described by the manufacturer, PerkinElmer. Data analyses software was used to determine compound EC50 values where the baseline was established using average DMSO values and 100% induction established using reference compound values at the highest concentration tested. EC50's can be determined with software such as Graphpad Prism™.

IFN-α = conditions: fold less potent than corresponding purine-8-one compound; cited from earlier work

Chain of human TLR7 (Q9NYK1 27-1049): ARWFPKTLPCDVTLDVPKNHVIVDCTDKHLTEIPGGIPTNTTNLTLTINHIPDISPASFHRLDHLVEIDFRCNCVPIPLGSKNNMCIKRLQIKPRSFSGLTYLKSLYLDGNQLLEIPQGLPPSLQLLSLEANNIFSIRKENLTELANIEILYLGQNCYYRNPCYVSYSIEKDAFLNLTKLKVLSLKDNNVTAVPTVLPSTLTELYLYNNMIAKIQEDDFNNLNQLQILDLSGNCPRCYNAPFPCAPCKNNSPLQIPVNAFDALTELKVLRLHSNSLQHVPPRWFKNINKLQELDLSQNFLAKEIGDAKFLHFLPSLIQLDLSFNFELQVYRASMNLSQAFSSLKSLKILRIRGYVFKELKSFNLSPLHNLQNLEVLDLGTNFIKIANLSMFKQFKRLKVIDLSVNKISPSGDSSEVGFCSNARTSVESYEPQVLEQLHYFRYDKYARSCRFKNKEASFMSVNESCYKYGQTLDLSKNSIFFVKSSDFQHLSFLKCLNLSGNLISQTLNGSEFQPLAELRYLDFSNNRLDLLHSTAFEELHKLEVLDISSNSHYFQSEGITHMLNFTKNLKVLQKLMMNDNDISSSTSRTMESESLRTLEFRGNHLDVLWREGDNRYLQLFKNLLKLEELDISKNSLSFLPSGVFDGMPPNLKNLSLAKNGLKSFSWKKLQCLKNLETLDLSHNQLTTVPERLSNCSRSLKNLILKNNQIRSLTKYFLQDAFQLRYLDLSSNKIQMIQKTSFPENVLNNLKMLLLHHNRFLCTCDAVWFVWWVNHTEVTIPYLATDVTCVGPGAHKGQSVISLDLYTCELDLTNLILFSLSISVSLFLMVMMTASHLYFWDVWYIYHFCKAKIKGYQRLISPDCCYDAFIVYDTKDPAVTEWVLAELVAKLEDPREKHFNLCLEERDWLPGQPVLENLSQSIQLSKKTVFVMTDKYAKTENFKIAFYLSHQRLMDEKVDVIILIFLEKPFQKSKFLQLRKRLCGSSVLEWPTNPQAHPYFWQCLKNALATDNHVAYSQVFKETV

SMILES | pEC50 (human TLR7) | pEC50 (interleukin 6 (IL-6)) | potency less than that of the corresponding purine-8-one compound, as measured by IFN-α induction (IFN-α) [×]
CCCCOc1nc(N)c2nc(O)n(Cc3cccc(Oc4cccc(CNCc5ccncc5)c4)c3)c2n1 [IIa-11] | 6.37 |  | 
CCCCOc1nc(N)c2nc(O)n(Cc3ccc(Oc4ccc(CO)cc4)cc3)c2n1 [Ia-01] | 7.85 | 6.30 | 
CCCCOc1nc(N)c2nc(O)n(Cc3ccc(Oc4ccc(CNC)cc4)cc3)c2n1 [Ia-02] | 8.89 |  | 
CCCCOc1nc(N)c2nc(O)n(Cc3ccc(Oc4ccc(CNCCO)cc4)cc3)c2n1 [Ia-06] |  | 7.76 | 
CCCCOc1nc(N)c2nc(O)n(Cc3ccc(Oc4ccc(CNCCOC)cc4)cc3)c2n1 [Ia-07] | 8.89 | 8.18 | 
CCCCOc1nc(N)c2nc(O)n(Cc3ccc(Oc4ccc(CNCc5ccccc5)cc4)cc3)c2n1 [Ia-08] |  | 7.61 | 
CCCCOc1nc(N)c2nc(O)n(Cc3ccc(Oc4cccc(CNCC(C)C)n4)cc3)c2n1 [Ic-01] |  | 8.00 | 
CCCCOc1nc(N)c2nc(O)n(Cc3ccc(Oc4cccc(CNCCOC)n4)cc3)c2n1 [Ic-06] | 8.55 | 7.55 | 
CCCCOc1nc(N)c2nc(O)n(Cc3ccc(Oc4cccc(CNCCC#N)n4)cc3)c2n1 [Ic-07] |  | 6.88 | 
CCCCOc1nc(N)c2nc(O)n(Cc3ccc(Oc4ccc(CNCC(C)C)cc4)c(F)c3)c2n1 [Ie-01] |  | 7.59 | 
CCCCOc1nc(N)c2nc(O)n(Cc3ccc(Oc4ccc(CN5CCC5)cc4)c(F)c3)c2n1 [Ie-03] |  | 7.72 | 
CCCCOc1nc(N)c2nc(O)n(Cc3ccc(Oc4ccc(CNCC(F)F)cc4)c(F)c3)c2n1 [Ie-04] |  | 6.34 | 
CCCCOc1nc(N)c2nc(O)n(Cc3ccc(Oc4ccc(CNCCOC)cc4)c(F)c3)c2n1 [Ie-05] |  | 7.62 | 
CCCCOc1nc(N)c2nc(O)n(Cc3ccc(Oc4ccc(CNCCO)cc4)c(F)c3)c2n1 [Ie-06] |  | 7.54 | 
CCCCOc1nc(N)c2nc(O)n(Cc3ccc(Oc4ccc(CNCCS(C)(=O)=O)cc4)c(F)c3)c2n1 [Ie-07] | 8.77 | 6.89 | 
CCCCOc1nc(N)c2nc(O)n(Cc3ccc(Oc4ccc(CN5CCOCC5)cc4)c(F)c3)c2n1 [Ie-09] |  | 6.60 | 
CCCCOc1nc(N)c2nc(O)n(Cc3ccc(Oc4ccc(CN5CCN(C)CC5)cc4)c(F)c3)c2n1 [Ie-10] |  | 7.12 | 
CCCCOc1nc(N)c2nc(O)n(Cc3ccc(Nc4ccc(CNCC(C)C)cc4)nc3)c2n1 [If-01] |  | 7.62 | 
CCCCOc1nc(N)c2nc(O)n(Cc3ccc(Nc4ccc(CNCCO)cc4)nc3)c2n1 [If-02] |  | 7.14 | 
CCCCOc1nc(N)c2nc(O)n(Cc3ccc(Nc4ccc(CNCC(F)F)cc4)nc3)c2n1 [If-05] |  | 7.77 | 
CCCCOc1nc(N)c2nc(O)n(Cc3ccc(Nc4ccc(CN5CCCC5)cc4)nc3)c2n1 [If-06] |  | 8.42 | 
CCCCOc1nc(N)c2nc(O)n(Cc3ccc(Nc4ccc(CNCC(C)(C)O)cc4)nc3)c2n1 [If-07] |  | 8.11 | 
CCCCOc1nc(N)c2nc(O)n(Cc3ccc(Nc4ccc(CNCCS(C)(=O)=O)cc4)nc3)c2n1 [If-09] |  | 7.17 | 
CCCCOc1nc(N)c2c(n1)N(Cc1cccc(CN3CCCC3)c1)CC(=O)N2 [Vesatolimod, vesatolimod] |  |  | 100

The next lines start with results.

pEC50 (human TLR7) | pEC50 (interleukin 6 (IL-6)) | SMILES | potency less than that of the corresponding purine-8-one compound, as measured by IFN-α induction (IFN-α) [×]
6.95 |  | CCCCOc1nc(N)c2nc(O)n(Cc3cccc(Oc4cccc(CNC5CCOCC5)c4)c3)c2n1 [IIa-04] | 
 | 7.75 | CCCCOc1nc(N)c2nc(O)n(Cc3ccc(Oc4ccc(CNC5CC5)cc4)cc3)c2n1 [Ia-03] | 
 | 7.98 | CCCCOc1nc(N)c2nc(O)n(Cc3ccc(Oc4ccc(CNC5CCC5)cc4)cc3)c2n1 [Ia-04] | 
 | 7.51 | CCCCOc1nc(N)c2nc(O)n(Cc3ccc(Oc4ccc(CNC5COC5)cc4)cc3)c2n1 [Ia-05] | 
 | 6.98 | CCCCOc1nc(N)c2nc(O)n(Cc3ccc(Oc4ccc(CO)cc4)nc3)c2n1 [Ib-01] | 
 | 7.53 | CCCCOc1nc(N)c2nc(O)n(Cc3ccc(Oc4ccc(CNC)cc4)nc3)c2n1 [Ib-02] | 
 | 8.12 | CCCCOc1nc(N)c2nc(O)n(Cc3ccc(Oc4ccc(CNC(C)C)cc4)nc3)c2n1 [Ib-03] | 
 | 8.02 | CCCCOc1nc(N)c2nc(O)n(Cc3ccc(Oc4ccc(CNC5COC5)cc4)nc3)c2n1 [Ib-05] | 
9.04 | 7.97 | CCCCOc1nc(N)c2nc(O)n(Cc3ccc(Oc4ccc(CNCCO)cc4)nc3)c2n1 [Ib-06] | 
9.21 | 8.24 | CCCCOc1nc(N)c2nc(O)n(Cc3ccc(Oc4ccc(CNCCOC)cc4)nc3)c2n1 [Ib-07] | 
 | 8.23 | CCCCOc1nc(N)c2nc(O)n(Cc3ccc(Oc4ccc(CNC5C6CC5C6)cc4)nc3)c2n1 (stereo not drawn) [Ib-09] | 
 | 7.84 | CCCCOc1nc(N)c2nc(O)n(Cc3ccc(Oc4ccc(CNC5CC(F)(F)C5)cc4)nc3)c2n1 [Ib-10] | 
 | 8.09 | CCCCOc1nc(N)c2nc(O)n(Cc3ccc(Oc4ccc(CNC5CCCC5)cc4)nc3)c2n1 [Ib-11] | 
 | 8.42 | CCCCOc1nc(N)c2nc(O)n(Cc3ccc(Oc4ccc(CNCC(C)C)cc4)nc3)c2n1 [Ib-12] | 
 | 7.51 | CCCCOc1nc(N)c2nc(O)n(Cc3ccc(Oc4ccc(CNCC(F)F)cc4)nc3)c2n1 [Ib-13] | 
 | 7.72 | CCCCOc1nc(N)c2nc(O)n(Cc3ccc(Oc4ccc(CNCCS(C)(=O)=O)cc4)nc3)c2n1 [Ib-14] | 
 | 7.19 | CCCCOc1nc(N)c2nc(O)n(Cc3ccc(Oc4ccc(CNCC5CC5)cc4)nc3)c2n1 [Ib-15] | 

pEC50 (human TLR7) | pEC50 (interleukin 6 (IL-6)) | SMILES | potency less than that of the corresponding purine-8-one compound, as measured by IFN-α induction (IFN-α) [×]
 | 7.07 | CCCCOc1nc(N)c2nc(O)n(Cc3ccc(Oc4ccc(CNCCC#N)cc4)nc3)c2n1 [Ib-16] | 
9.08 | 8.29 | CCCCOc1nc(N)c2nc(O)n(Cc3ccc(Oc4ccc(CNC5CC5)cc4)nc3)c2n1 [Ib-17] | 
 | 7.79 | CCCCOc1nc(N)c2nc(O)n(Cc3ccc(Oc4cccc(CNC5CCC5)n4)cc3)c2n1 [Ic-02] | 
 | 7.11 | CCCCOc1nc(N)c2nc(O)n(Cc3ccc(Oc4cccc(CNC5COC5)n4)cc3)c2n1 [Ic-03] | 
9.06 | 7.35 | CCCCOc1nc(N)c2nc(O)n(Cc3ccc(Oc4cccc(CNCCO)n4)cc3)c2n1 [Ic-05] | 
 | 7.55 | CCCCOc1nc(N)c2nc(O)n(Cc3ccc(Oc4ccc(CNCC(C)C)nc4)nc3)c2n1 [Id-01] | 
 | 7.60 | CCCCOc1nc(N)c2nc(O)n(Cc3ccc(Oc4ccc(CNC5CCC5)nc4)nc3)c2n1 [Id-02] | 
 | 7.85 | CCCCOc1nc(N)c2nc(O)n(Cc3ccc(Oc4ccc(CNC5CCOCC5)nc4)nc3)c2n1 [Id-03] | 
 | 7.89 | CCCCOc1nc(N)c2nc(O)n(Cc3ccc(Oc4ccc(CNCCOC)nc4)nc3)c2n1 [Id-04] | 
 | 7.92 | CCCCOc1nc(N)c2nc(O)n(Cc3ccc(Oc4ccc(CNCCO)nc4)nc3)c2n1 [Id-05] | 
 | 7.00 | CCCCOc1nc(N)c2nc(O)n(Cc3ccc(Oc4ccc(CNCC(F)F)nc4)nc3)c2n1 [Id-06] | 
 | 7.82 | CCCCOc1nc(N)c2nc(O)n(Cc3ccc(Oc4ccc(CN5CCOCC5)nc4)nc3)c2n1 [Id-07] | 
 | 7.68 | CCCCOc1nc(N)c2nc(O)n(Cc3ccc(Oc4ccc(CN5CCN(C)CC5)nc4)nc3)c2n1 [Id-08] | 
 | 7.72 | CCCCOc1nc(N)c2nc(O)n(Cc3ccc(Oc4ccc(CNC5CCC5)cc4)c(F)c3)c2n1 [Ie-02] | 
 | 8.12 | CCCCOc1nc(N)c2nc(O)n(Cc3ccc(Oc4ccc(CNC5CCOCC5)cc4)c(F)c3)c2n1 [Ie-08] | 
 | 7.85 | CCCCOc1nc(N)c2nc(O)n(Cc3ccc(Nc4ccc(CNC5CCOCC5)cc4)nc3)c2n1 [If-03] | 
 | 8.60 | CCCCOc1nc(N)c2nc(O)n(Cc3ccc(Nc4ccc(CNC5CCC5)cc4)nc3)c2n1 [If-04] | 

From patent US10508115B2, “Toll-like receptor 7 (TLR7) agonists having heteroatom-linked aromatic moieties, conjugates thereof, and methods and uses therefor” (BRISTOL-MYERS SQUIBB COMPANY, priority 2017, dated 2019)
